IC50 data for eleven molecules are collected here from patent US11965039B2, “Compstatin analogues and their medical uses” (priority 2018, dated 2024).

Starred links: 1 amine or outer side, 2 acyl side, 3 side chain; linkers in the order of their positions; H or OH if unused. Positions of bridges follow the written chain, without caps; N, C: chain ends. Non-standard residues stand in square brackets, D forms with d. Residues, ends and D or L forms follow the SMILES beside them. Groups on a side chain read outwards from the residue. *: point of attachment. Trp(1-Me) = Cn1cc(C[C@H](N)C(=O)O)c2ccccc21; C18 diacid = O=C(O)CCCCCCCCCCCCCCCCC(=O)*; γGlu = O=C(O)[C@H](CCC(=O)[*:2])N[*:1]; AEEA = NCCOCCOCC(=O)O; Aoc = NCCCCCCCC(=O)O; Sar = CNCC(=O)O Where only a bound is given, the exact number is not on record here.

The first experiment relates to classical complement pathway. Put plainly: In vitro haemolysis assay (inhibition of classical complement pathway). The following applies: human serum, sensitized sheep red blood cells; Table 3, given as upper bounds; read-out: IC50, inhibition of hemolysis. The experiment is classed as cell-based, human. The method, then: The in vitro effect of the compounds of the present invention was assessed by measuring their inhibitory effect of the classical complement pathway in a haemolysis assay. Briefly, compounds of the present invention and reference compounds were dissolved in DMSO and diluted in Tris/Casein Assay Buffer (10 mM Tris, 145 mM NaCl, 0.5 mM MgCl2, 0.15 mM CaCl2), and 0.1% W/V Casein, adjusted to pH 7.4) as 9-point serial dilutions in a 96 well plate. Sensitized sheep red blood cells (RBC) coated with rabbit anti-sheep erythrocyte antiserum (Complement Technology, Inc., TX, USA) were washed in Tris/Casein Assay Buffer. […] from each well of diluted compound was added to a 96-well plate containing 50 μL diluted human serum (Complement Technology, Inc., TX, USA) and incubated for 15 minutes at room temperature. The serum dilution factor was optimized for every serum batch to obtain 70-90% of maximal haemolysis using the protocol. Then 50 μL sensitized sheep red blood cells were added to all wells (10^7 per well). After 30 minutes of incubation at 37 QC with gentle agitation, the reaction was stopped by addition of 50 μL Tris STOP Buffer per well (10 mM EDTA, 10 mM Tris, 145 mM NaCl adjusted to pH 7.4). The RBCs were then removed by centrifugation and the resulting supernatant measured for hemolysis by absorbance at 405 nm. The response was normalized relative to a positive and negative control (vehicle) to calculate the IC50 from the concentration response curve using the 4-parameter logistic (4PL) nonlinear model for curve fitting.
For `CC[C@H](C)[C@@H]1NC(=O)[C@@H](NC(=O)[C@H](Cc2ccccc2)NC(=O)[C@H](CCC(=O)O)NC(=O)[C@H](CO)NC(C)=O)CSSC[C@@H](C(=O)N[C@H](C(=O)N[C@@H](CCC(=O)O)C(=O)NCC(=O)N[C@@H](CCC(=O)O)C(=O)NCCOCCOCC(=O)NCCOCCOCC(=O)N[C@@H](CCCCNC(=O)CC[C@H](NC(=O)CNC(=O)CC[C@H](NC(=O)CCCCCCCCCCCCCCCCC(=O)O)C(=O)O)C(=O)O)C(N)=O)[C@@H](C)O)NC(=O)[C@H](CCCNC(=N)N)NC(=O)[C@H](Cc2c[nH]cn2)NC(=O)[C@H](CCC(=O)O)NC(=O)CNC(=O)[C@H](Cc2c[nH]c3ccccc23)NC(=O)[C@H](CC(=O)O)NC(=O)[C@H](CCC(N)=O)NC(=O)[C@H](Cc2cn(C)c3ccccc23)NC1=O` [Compound 126] (Ac-SEFCI[Trp(1-Me)]QDWGEHRCTEGE[AEEA][AEEA]K([γGlu-Gly-γGlu-C18 diacid])-NH2; disulfide 4-14), the IC50 – broadly, the midpoint of a concentration-inhibition curve – is less than 100 nM. For `CC[C@H](C)[C@@H]1NC(=O)[C@@H](NC(=O)[C@H](Cc2ccccc2)NC(=O)[C@H](CCC(=O)O)NC(=O)[C@H](CO)NC(C)=O)CSSC[C@@H](C(=O)N[C@H](C(=O)N[C@@H](CCC(=O)O)C(=O)N[C@@H](CCCCN)C(=O)N[C@@H](CCC(=O)NCC(=O)NCC(=O)NCC(=O)N[C@@H](CCCCNC(=O)CC[C@H](NC(=O)CNC(=O)CC[C@H](NC(=O)CCCCCCCCCCCCCCCCC(=O)O)C(=O)O)C(=O)O)C(N)=O)C(=O)O)[C@@H](C)O)NC(=O)[C@H](CCCNC(=N)N)NC(=O)[C@H](Cc2c[nH]cn2)NC(=O)[C@H](CCC(=O)O)NC(=O)CNC(=O)[C@H](Cc2c[nH]c3ccccc23)NC(=O)[C@H](CC(=O)O)NC(=O)[C@H](CCC(N)=O)NC(=O)[C@H](Cc2cn(C)c3ccccc23)NC1=O` [Compound 133] (Ac-SEFCI[Trp(1-Me)]QDWGEHRCTEK[γGlu]GGGK([γGlu-Gly-γGlu-C18 diacid])-NH2; disulfide 4-14), the IC50 is less than 100 nM.

Take `CC[C@H](C)[C@@H]1NC(=O)[C@@H](NC(=O)[C@H](Cc2ccccc2)NC(=O)[C@H](CCC(=O)O)NC(=O)[C@H](CO)NC(C)=O)CSSC[C@@H](C(=O)N[C@H](C(=O)N[C@@H](CCC(=O)O)C(=O)NCC(=O)N[C@@H](CCC(=O)O)C(=O)NCCCCCCCC(=O)N[C@@H](CCC(=O)O)C(=O)N[C@@H](CCCCNC(=O)CC[C@H](NC(=O)CNC(=O)CC[C@H](NC(=O)CCCCCCCCCCCCCCCCC(=O)O)C(=O)O)C(=O)O)C(N)=O)[C@@H](C)O)NC(=O)[C@H](CCCNC(=N)N)NC(=O)[C@H](Cc2c[nH]cn2)NC(=O)[C@H](CCC(=O)O)NC(=O)CNC(=O)[C@H](Cc2c[nH]c3ccccc23)NC(=O)[C@H](CC(=O)O)NC(=O)[C@H](CCC(N)=O)NC(=O)[C@H](Cc2cn(C)c3ccccc23)NC1=O` [Compound 137] (Ac-SEFCI[Trp(1-Me)]QDWGEHRCTEGE[Aoc]EK([γGlu-Gly-γGlu-C18 diacid])-NH2; disulfide 4-14): the IC50 was less than 100 nM. Take `CC[C@H](C)[C@H](NC(=O)[C@H](C)NC(=O)[C@H](CO)NC(=O)CNC(=O)[C@H](CCC(=O)O)NC(C)=O)C(=O)N[C@H]1CSSC[C@@H](C(=O)N[C@H](C(N)=O)[C@@H](C)O)NC(=O)[C@H](CCCNC(=N)N)NC(=O)[C@H](Cc2c[nH]cn2)NC(=O)[C@H](CCC(=O)O)NC(=O)CNC(=O)[C@H](Cc2c[nH]c3ccccc23)NC(=O)[C@H](CC(=O)O)NC(=O)[C@H](CCC(N)=O)NC(=O)[C@H](Cc2c[nH]c3ccccc23)NC(=O)[C@H]([C@@H](C)CC)NC1=O` [Compound 29] (Ac-EGSAICIWQDWGEHRCT-NH2; disulfide 6-16): the half-maximal inhibitory concentration (IC50) is less than 100 nM. The same measure, in the same setting: the value for `CC[C@H](C)[C@@H]1NC(=O)[C@@H](NC(=O)[C@H](Cc2ccccc2)NC(=O)[C@H](CCC(=O)O)NC(=O)[C@H](CO)NC(C)=O)CSSC[C@@H](C(=O)N(C)CC(=O)N[C@@H](CCC(=O)O)C(=O)NCC(=O)N[C@@H](CCC(=O)O)C(=O)NCCOCCOCC(=O)NCCOCCOCC(=O)N[C@@H](CCCCNC(=O)CC[C@H](NC(=O)CNC(=O)CC[C@H](NC(=O)CCCCCCCCCCCCCCCCC(=O)O)C(=O)O)C(=O)O)C(N)=O)NC(=O)[C@H](CCCNC(=N)N)NC(=O)[C@H](Cc2c[nH]cn2)NC(=O)[C@H](CCC(=O)O)NC(=O)CNC(=O)[C@H](Cc2c[nH]c3ccccc23)NC(=O)[C@H](CCC(=O)O)NC(=O)[C@H](CCC(N)=O)NC(=O)[C@H](Cc2cn(C)c3ccccc23)NC1=O` [Compound 124] (Ac-SEFCI[Trp(1-Me)]QEWGEHRC[Sar]EGE[AEEA][AEEA]K([γGlu-Gly-γGlu-C18 diacid])-NH2; disulfide 4-14) was less than 100 nM; that for `CC[C@H](C)[C@@H]1NC(=O)[C@@H](NC(=O)[C@H](Cc2ccc(O)cc2)NC(=O)[C@H](CCC(=O)O)NC(=O)CNC(=O)[C@H](CO)NC(=O)[C@H](C)NC(C)=O)CSSC[C@@H](C(=O)N(C)CC(=O)N[C@@H](CCC(=O)O)C(=O)NCC(=O)N[C@@H](CCC(=O)O)C(=O)N[C@@H](CCCCNC(=O)CC[C@H](NC(=O)CNC(=O)CC[C@H](NC(=O)CCCCCCCCCCCCCCCCC(=O)O)C(=O)O)C(=O)O)C(N)=O)NC(=O)[C@H](CCCNC(=N)N)NC(=O)[C@H](Cc2c[nH]cn2)NC(=O)[C@H](CCC(=O)O)NC(=O)CNC(=O)[C@H](Cc2c[nH]c3ccccc23)NC(=O)[C@H](CC(=O)O)NC(=O)[C@H](CCC(N)=O)NC(=O)[C@H](Cc2cn(C)c3ccccc23)NC1=O` [Compound 113] (Ac-ASGEYCI[Trp(1-Me)]QDWGEHRC[Sar]EGEK([γGlu-Gly-γGlu-C18 diacid])-NH2; disulfide 6-16) was less than 500 nM; that for `CC[C@H](C)[C@H](NC(C)=O)C(=O)N[C@H]1CSSC[C@@H](C(=O)N(C)CC(N)=O)NC(=O)[C@H](CCCNC(=N)N)NC(=O)[C@H](Cc2c[nH]cn2)NC(=O)[C@H](CCC(=O)O)NC(=O)CNC(=O)[C@H](Cc2c[nH]c3ccccc23)NC(=O)[C@H](CC(=O)O)NC(=O)[C@H](CCC(N)=O)NC(=O)[C@H](Cc2c[nH]c3ccccc23)NC(=O)[C@H]([C@@H](C)CC)NC1=O` [Compound 13] (Ac-ICIWQDWGEHRC[Sar]-NH2; disulfide 2-12) was less than 100 nM. On to `CC[C@H](C)[C@@H]1NC(=O)[C@@H](NC(=O)[C@H](Cc2ccccc2)NC(=O)[C@H](CCC(=O)O)NC(=O)[C@H](CO)NC(C)=O)CSSC[C@@H](C(=O)N(C)CC(=O)N[C@@H](CCC(=O)O)C(=O)NCC(=O)N[C@@H](CCC(=O)O)C(=O)NCCOCCOCC(=O)NCCOCCOCC(=O)N[C@@H](CCCCNC(=O)CC[C@H](NC(=O)CNC(=O)CC[C@H](NC(=O)CCCCCCCCCCCCCCCCC(=O)O)C(=O)O)C(=O)O)C(N)=O)NC(=O)[C@H](CCCNC(=N)N)NC(=O)[C@H](Cc2c[nH]cn2)NC(=O)[C@H](CCC(=O)O)NC(=O)CNC(=O)[C@H](Cc2c[nH]c3ccccc23)NC(=O)[C@H](CC(=O)O)NC(=O)[C@H](CCC(N)=O)NC(=O)[C@H](Cc2cn(C)c3ccccc23)NC1=O` [Compound 123] (Ac-SEFCI[Trp(1-Me)]QDWGEHRC[Sar]EGE[AEEA][AEEA]K([γGlu-Gly-γGlu-C18 diacid])-NH2; disulfide 4-14), for which the IC50 is less than 100 nM. Turning to `CC[C@H](C)[C@H](NC(=O)[C@H](C)NC(=O)[C@H](CO)NC(C)=O)C(=O)N[C@H]1CSSC[C@@H](C(=O)N[C@H](C(=O)N[C@@H](CCC(=O)O)C(=O)NCC(N)=O)[C@@H](C)O)NC(=O)[C@H](CCCNC(=N)N)NC(=O)[C@H](Cc2c[nH]cn2)NC(=O)[C@H](CCC(=O)O)NC(=O)CNC(=O)[C@H](Cc2c[nH]c3ccccc23)NC(=O)[C@H](CC(=O)O)NC(=O)[C@H](CCC(N)=O)NC(=O)[C@H](Cc2c[nH]c3ccccc23)NC(=O)[C@H]([C@@H](C)CC)NC1=O` [Compound 42] (Ac-SAICIWQDWGEHRCTEG-NH2; disulfide 4-14), the IC50 was less than 250 nM. `CC[C@H](C)[C@H](NC(C)=O)C(=O)N[C@H]1CSSC[C@@H](C(=O)N[C@H](C(N)=O)[C@@H](C)O)NC(=O)[C@H](CO)NC(=O)[C@H](Cc2c[nH]cn2)NC(=O)[C@H](CCC(=O)O)NC(=O)CNC(=O)[C@H](Cc2c[nH]c3ccccc23)NC(=O)[C@H](CC(=O)O)NC(=O)[C@H](CCC(N)=O)NC(=O)[C@H](Cc2c[nH]c3ccccc23)NC(=O)[C@H]([C@@H](C)CC)NC1=O` [Compound 20] (Ac-ICIWQDWGEHSCT-NH2; disulfide 2-12): the IC50 is less than 100 nM. For `CC[C@H](C)[C@@H]1NC(=O)[C@@H](NC(=O)[C@H](Cc2ccccc2)NC(C)=O)CSSC[C@@H](C(=O)N[C@H](C(=O)NCC(=O)N[C@@H](C)C(=O)N[C@@H](CCC(=O)O)C(N)=O)[C@@H](C)O)NC(=O)[C@H](CCCNC(=N)N)NC(=O)[C@H](Cc2c[nH]cn2)NC(=O)[C@H](CCC(=O)O)NC(=O)CNC(=O)[C@H](Cc2c[nH]c3ccccc23)NC(=O)[C@H](CC(=O)O)NC(=O)[C@H](CCC(N)=O)NC(=O)[C@H](Cc2c[nH]c3ccccc23)NC1=O` [Compound 43] (Ac-FCIWQDWGEHRCTGAE-NH2; disulfide 2-12), the IC50 is less than 100 nM.

Staying with this experiment, now noted: human serum, sensitized sheep red blood cells; Table 4, valine 3 vs isoleucine 3 pairs; read-out: CP hemolysis IC50.
In the case of `CC[C@H](C)[C@H](NC(C)=O)C(=O)N[C@H]1CSSC[C@@H](C(=O)N[C@H](C(N)=O)[C@@H](C)O)NC(=O)[C@H](CO)NC(=O)[C@H](Cc2c[nH]cn2)NC(=O)[C@H](CCC(=O)O)NC(=O)CNC(=O)[C@H](Cc2c[nH]c3ccccc23)NC(=O)[C@H](CC(=O)O)NC(=O)[C@H](CCC(N)=O)NC(=O)[C@H](Cc2c[nH]c3ccccc23)NC(=O)[C@H]([C@@H](C)CC)NC1=O` [Compound 20] (Ac-ICIWQDWGEHSCT-NH2; disulfide 2-12), the IC50 was 59 nM.
